By pKi is commonly meant the negative decadic logarithm of the Ki, by convention in mol/L. A high value points to a low Ki.

pKi: −log10 of the molar value.

Drawing on ChEMBL document CHEMBL1128607, “Structure-based design of novel HIV protease inhibitors: carboxamide-containing 4-hydroxycoumarins and 4-hydroxy-2-pyrones as potent nonpeptidic inhibitors” (J Med Chem, 1995), this text covers Ki for 18 compounds.

For the experiment, the target named is Human immunodeficiency virus type 1 protease (Human immunodeficiency virus 1, UniProt Q72874). In words: Ability to inhibit HIV protease purified and refolded from Escherichia coli inclusion bodies.

Take `CCC(c1cccc(NC(=O)CCCNC(=O)OC(C)(C)C)c1)c1c(O)c2ccccc2oc1=O` (stereo not drawn): the pKi was 5.80.
`CCC(c1cccc(NC(=O)[C@H](C)NC(=O)OC(C)(C)C)c1)c1c(O)c2ccccc2oc1=O` (stereo partly drawn) gave a pKi of 6.77.
For `CCC(Cc1ccccc1)c1cc(O)c(C(c2cccc(NC(=O)[C@H](Cc3c[nH]cn3)NC(=O)OC(C)(C)C)c2)C2CC2)c(=O)o1` (stereo partly drawn) the value was 8.40; for `CCC(Cc1ccccc1)c1cc(O)c(C(c2cccc(NC(=O)Cc3ccncc3)c2)C2CC2)c(=O)o1` (stereo not drawn), 7.36; for `CCC(Cc1ccccc1)c1cc(O)c(C(c2cccc(NC(=O)[C@H](C)NC(=O)OC(C)(C)C)c2)C2CC2)c(=O)o1` (stereo partly drawn), 7.82.
`CC(C)(C)OC(=O)NCCC(=O)Nc1cccc(C(c2c(O)oc3ccccc3c2=O)C2CC2)c1` (stereo not drawn) showed a pKi of 7.07.
For `CCC(c1cccc(NC(=O)CCNC(=O)OC(C)(C)C)c1)c1c(O)c2ccccc2oc1=O` (stereo not drawn) the value was 6.55; for `CCC(c1cccc(NC(=O)[C@@H]2CCCN2C(=O)OC(C)(C)C)c1)c1c(O)c2ccccc2oc1=O` (stereo partly drawn), 5.44.
For `CCC(Cc1ccccc1)c1cc(O)c(C(c2cccc(NC(=O)[C@H](Cc3cn(S(=O)(=O)c4ccc(C)cc4)cn3)NC(=O)OC(C)(C)C)c2)C2CC2)c(=O)o1` (stereo partly drawn) the value was 7.72.
Next, `COc1ccc2c(O)c(C(c3ccccc3)C3CC3)c(=O)oc2c1` (stereo not drawn): 6.77.
As to `CCC(c1cccc(C(=O)NCc2nc3ccccc3[nH]2)c1)c1c(O)oc2ccccc2c1=O` (stereo not drawn), the pKi was 5.36.
Next, `COc1ccc2c(O)c(C(c3cccc(NC(=O)CCNC(=O)OC(C)(C)C)c3)C3CC3)c(=O)oc2c1` (stereo not drawn): 7.55; `O=c1oc2ccccc2c(O)c1C(c1ccccc1)C1CC1` (stereo not drawn): 6.46.
For `CCC(c1cccc(NC(=O)CCNC(=O)OC(C)(C)C)c1)c1c(O)oc2cc(OC)ccc2c1=O` (stereo not drawn) the value was 6.77.
Next, `CCC(c1cccc(NC(=O)CNC(=O)OC(C)(C)C)c1)c1c(O)c2ccccc2oc1=O` (stereo not drawn): 6.80; `CCC(c1ccccc1)c1c(O)c2ccc(OC)cc2oc1=O` (stereo not drawn): 6.25; `CCC(c1cccc(NC(=O)CCn2ccc3ccccc32)c1)c1c(O)c2ccccc2oc1=O` (stereo not drawn): 6.96.
In turn, `CCC(c1cccc(C(=O)N[C@H](C(=O)NCc2ccccn2)C(C)CC)c1)c1c(O)oc2ccccc2c1=O` (stereo partly drawn) showed a pKi of 6.40. This pKi is 0.56 log units lower than that of the compound before.
